# In patent publication US5874471A, “Orthomolecular medical use of L-citrulline for vasoprotection, relaxative smooth muscle tone and cell protection” (priority 1997, dated 1999):
# Read-outs that look alike come from different tables or passages of the source.
# Assays:
# [1] = test system: rabbit model of angioplasty; conditions: L-arginine hydrochloride 2.25% in drinking water; cited from earlier work
# [2] = cited from earlier work
# [3] = parenteral injection, rats; cited from earlier work
# [4] = test system: endothelium-dependent vasodilation; conditions: L-arginine infusion, humans with hypercholesterolemia; cited from earlier work
# [5] = test system: hypercholesterolemic rabbit models; conditions: sixfold enrichment of dietary L-arginine; cited from earlier work
# human platelets = conditions: cited from earlier work; for inhibition of L-arginine uptake into platelets: 300 μM extracellular concentration, L-arginine 30 μM
# [6] = test system: renal vasodilatory responses; conditions: aged compared to young hypertensives; cited from earlier work
# [7] = test system: experimental diabetes mellitus; conditions: long-term oral administration in marked amounts; cited from earlier work
# apoptosis = conditions: L-arginine-deficient (10 μM) environment; cited from earlier work
# [8] = test system: uterine muscle strips from gravid rats; conditions: L-arginine added to extracellular fluid; cited from earlier work
# [9] = test system: spermatocytes of infertile men; conditions: 4 to 20 grams of arginine daily, oral; cited from earlier work
# [10] = test system: cortical spreading depression; conditions: rat, in vivo; cited from earlier work
# [11] = test system: human semen specimens with low motility; conditions: between 1.0 and 4.0 mM, in vitro; cited from earlier work
# [12] = rat; cited from earlier work
# activated c-NOS = conditions: plasma L-arginine above normal fasting 75 to 90 μM; cited from earlier work
# [13] = Plasma ultrafiltrate L-arginine level after oral L-citrulline (colorimetric assay); assay type: in vivo, human
# Description: The one FIGURE contains graphs of plasma ultrafiltrate levels of L-arginine in the fasting state (9-10 hours) related to the daily amounts of L-citrulline ingested in two divided doses. Also depicted are levels 2-hours after ingestion of morning doses of L-citmulline (EXAMPLE 1).
# A novel colorimetric method for the quantitative assay of free L-arginine in blood plasma was developed. The method measures the color product from monosubstituted guanidines without and with L-arginase incubation to destroy the arginine and the potential guanido color product that would be derived from L-arginine. The photometric decrease in guanido color product measures specifically the concentration of L-arginine. The L-arginine methodology was applied to ultrafiltrates of blood plasma after ultrafiltrations of separated plasma samples were done at 4° Celsius.
# Blood plasma levels after 9 to 10 hours of overnight fasting averaged 83.0±1.1 μM (mean±SD of 3 determinations). Two hours after ingestion of 3.0 grams of L-citrulline in capsular form, plasma L-arginine level rose by […] to 132.7 μM. Overnight fasting plasma levels of L-arginine measured 125.2, 98.1, 90.8, 114.2, and 120.0 μM after ingestion of L-citrulline for 6 days at 6.0 grams, for 13 days at 2.4 grams, for 6 days at 3.4 grams, for 7 days at 6.8 grams, and for 2 days at 8.5 grams, respectively, in 2 divided doses (morning and nightly).
# (§1) The subject cited in Example 1 and Example 2 above subsequently undertook oral supplementation with 4.5 grams of L-citrulline daily in 2 divided doses (morning and nightly) of 1.8 grams (in 2 capsules) and 2.7 grams (in 3 capsules) for 4 months. They continued their usual food intake. At the end of the 4-month period of supplementation with 4.5 grams daily, […] 9-hour overnight fasting plasma concentration of L-arginine measured at 102.3 μM, assayed in plasma within 30 minutes of venous blood sampling. This increased fasting plasma level contrasted from their lower normal fasting values of 83.0±1.1 μM measured months before, an increment about 20 μM greater.
# [14] = Total forearm bleeding time during oral L-citrulline; assay type: in vivo, human
# Description: The same subject that was studied in Example 1 was studied by total bleeding time determinations before and during ingestion of daily doses of L-citrulline, in two divided subdoses. Forearm bleeding times were done by 3 to 5 mm cuts about 1 mm deep made perpendicular to the fold of the elbow during template methodology and a sphygmomanometer cuff maintained near 40 mm Hg pressure. Control bleeding times were 51/2 minutes. Bleeding time rose to 131/2 minutes after 2 days of ingestion of 8.5 grams daily. Bleeding time was prolonged at 13 minutes after 4 weeks of ingestion of 5.4 grams of L-citrulline daily in 2 divided doses.
# [15] = Tolerability of oral L-citrulline (symptoms, blood count, serum chemistry); assay type: in vivo, human
# Text: (§2) Subsequently, the person cited in Example 4 followed an oral regimen of 3.6 grams of L-citrulline daily in two subdoses of 1.8 grams (morning and evening) for seven weeks. The frequency and intensity of the migraine pain episodes were reduced over this interval.
# as §1
# (§3) The apparent nootropic effects from oral intake of L-citrulline are consistent with the inventive beneficial effects of L-citrulline as exogenous precursor in order to improve brain functions that may be mediated by enhanced L-arginine, creatine, and phosphocreatine stores within the central nervous system.
# lacunar infarction = test: Recurrence of symptomatic lacunar infarction on daily citrulline; assay type: in vivo, human; conditions: 4.5 grams daily in two subdoses for many months
# Text: Aspirin in small daily doses is commonly recommended as antiplatelet and antithrombotic agent in cardiovascular disease, particularly for the secondary prevention of coronary artery thrombosis and myocardial infarction, and for cerebrovascular ischemic manifestations such as lacunar infarctions. This subject had experienced, five-years earlier, an acute episodic event of symptomatic lacunar infarction with virtual recovery.
# brain functions = test: Mental alertness, intellectual performance and mental fatigue on L-citrulline; assay type: in vivo, human; conditions: 4.5 grams daily, 4 months
# Description: as §1, §3
# migraine pains = test: Migraine pain with oral L-citrulline; assay type: in vivo, human
# Description: […] Their body weight was 59 kg. The subject gave a history of migraine pains with and without aura for about 15 years. Currently, the migraine pains were recurring about once to a few times weekly. Their parent had experienced migraine headaches for many years.
# Shortly after the onset of a severe headache attack, the subject ingested 2.7 grams of L-citrulline, followed by another 2.7 grams about 1 hour later.
# as §2
# [16] = in vivo; cited from earlier work
# [17] = rat, in vivo; cited from earlier work
# migraine aura = conditions: inhalation of small amounts, some cases; cited from earlier work
# platelet activity = conditions: cited from earlier work; for total bleeding time: low-dose / small therapeutic doses orally, humans
# osteoporosis = conditions: oral supplements in large amounts; cited from earlier work
# hippocampal brain tissue = conditions: extracellular creatine increased by 3 mM; cited from earlier work
# muscle fatigue = conditions: oral daily supplementation, healthy humans; cited from earlier work
# [18] = 4-month regimen of 4.5 grams daily
smiles,measurement,setting,value
Cl.N=C(N)NCCC[C@H](N)C(=O)O [L-arginine hydrochloride],arterial thickening,[1],reduced thickening
same,increase of plasma arginine levels,[1],about 2.6 times
same,neoendothelium-dependent arterial muscle relaxation,[1],enhanced neoendothelium-dependent arterial muscle relaxation
N=C(N)NCCC[C@H](N)C(=O)O [L-arginine],time to return to near fasting values,"[2]; 24.8 grams L-arginine, normal adults",3 h
same,peak plasma arginine relative to fasting values,"[2]; 24.8 grams L-arginine, fasting 90±6 μM",about 3.6 times
same,plasma citrulline levels,"[2]; oral 3-gram single doses of arginine, healthy humans",without a change in plasma citrulline levels
same,plasma arginine levels,"[2]; oral 3-gram single doses, healthy humans",raises plasma arginine levels acutely
same,time of peak plasma arginine,[2]; single protein meal of about 30 to 50 grams (about 1 to 2 grams arginine),2 to 3 h
same,time to return to near fasting levels,[2]; single protein meal of about 30 to 50 grams,5 to 6 h
same,time for plasma and tissue concentrations to return to normal,[3],2 to 3 h
same,impaired endothelium-dependent vasodilation,[4],corrected
same,endothelial adhesiveness and atherogenesis,[5],markedly inhibits endothelial adhesiveness and atherogenesis
same,increase in plasma arginine levels,[5],twofold increase
same,nitric oxide-dependent vasodilation,[5],improves nitric oxide-dependent vasodilation
same,Km,human platelets; read-out: apparent Km for uptake into human platelets,26 ± 4 µM
same,renal vasodilatory responses,[6],blunted in aged compared to young hypertensives
same,glomerular hyperfiltration and abnormal filtration fraction hemodynamics,[7],prevents the glomerular hyperfiltration
same,proteinuria,[7],ameliorates the proteinuria
same,protection from apoptosis,apoptosis,protects cells from apoptosis
same,muscle relaxation and quiescence,[8],"dose-dependent muscle relaxation, and muscle quiescence"
same,total sperm counts and motility rates,[9],may improve total sperm counts and motility rates
same,oligemic vasoconstriction following cortical spreading depression,[10],reduces the oligemic vasoconstriction
same,sperm motility,[11],enhances sperm motility in a concentration-dependent manner
same,brain tissue arginine level relative to plasma levels,[12],20 to 30%
same,endothelial nitric oxide production,activated c-NOS,augments endothelial nitric oxide production
NC(=O)NCCC[C@H](N)C(=O)O [L-citrulline],increment in fasting plasma L-arginine,[13]; 4 months at 4.5 grams daily vs 83.0±1.1 μM before,about 20 μM
same,metabolic adaptation to long-continued supplementation,"[13]; 4 months, 4.5 grams daily",no significant metabolic adaptation
same,elevation of plasma L-arginine versus equivalent L-arginine or protein meals,[13]; comparison with literature,more efficient and longer lasting
same,blood plasma levels of L-arginine after overnight fasting (general statement),"[13]; daily dosage in two divided subdoses, 9 to 10 hours fasting",greater blood plasma levels of L-arginine even after overnight fasting
same,blood plasma concentrations of free L-arginine (general statement),[13]; single oral doses of 3.0 grams or more in capsules,promptly raised to much higher levels
same,plasma L-arginine level rise,"[13]; two hours after 3.0 grams L-citrulline in capsules, person, 102 kg, fasting 83.0±1.1 μM before",62.4%
same,bleeding time,"[14]; after 2 days of 8.5 grams daily, control 51/2 minutes",131/2
same,prolongation of total bleeding time,[14]; daily doses of 5.4 grams to 8.5 grams,about two-fold
same,adverse side-effects,"[15]; 3.6 grams daily for seven weeks, person",No adverse side-effects
same,adverse symptoms,[15]; [18],No adverse symptoms
same,complete blood count and blood serum chemistry tests,[15]; [18],remained normal
same,adverse symptoms or untoward signs,"[15]; Example 1 study, several weeks",No adverse symptoms or untoward signs
same,recurrence of lacunar infarction,lacunar infarction,No manifestations of recurrence
same,mental alertness and intellectual performance,brain functions,enhanced
same,mental fatigue,brain functions,less mental fatigue
same,migraine pain intensity and duration,migraine pains; 2.7 grams at onset plus 2.7 grams about 1 hour later,markedly lessened in intensity and in duration
same,nausea during migraine attack,migraine pains; 2.7 grams plus 2.7 grams about 1 hour later,Much less nausea
same,frequency and intensity of migraine pain episodes,"migraine pains; 3.6 grams daily in two subdoses, seven weeks",reduced
same,blood-brain barrier passage,[16],readily passes the blood-brain barrier
same,liver uptake in portal venous blood,[17],Without appreciable liver uptake
NC(=O)CC[C@H](N)C(=O)O [L-glutamine],inhibition of L-arginine uptake into platelets,human platelets,inhibitory
NCCCC[C@H](N)C(=O)O [L-lysine],inhibition of L-arginine uptake into platelets,human platelets,inhibitory
NCCC[C@H](N)C(=O)O [L-ornithine],inhibition of L-arginine uptake into platelets,human platelets,inhibitory
CCCCCON=O [amyl nitrite],migraine aura,migraine aura,temporarily reversed migraine aura in some cases
"CC(=O)Oc1ccccc1C(=O)O [aspirin, acetylsalicylic acid]",total bleeding time,platelet activity,prolonged
same,total bleeding time,platelet activity; listed as acetylsalicylic acid (aspirin),prolongs the total bleeding time
same,platelet activity,platelet activity; low-dose intake in humans,inhibits platelet activity
O=C(O)O [calcium carbonate],skeletal bone loss in osteoporosis,osteoporosis,decreased the skeletal bone loss
CN(CC(=O)O)C(=N)N [creatine],ATP levels,hippocampal brain tissue,without change in ATP levels
same,anoxia-induced neuronal damage,hippocampal brain tissue,attenuated
same,neurocyte viability after anoxic periods,hippocampal brain tissue,greater neurocyte viabilities
same,neuronal free creatine and phosphocreatine levels,hippocampal brain tissue,large increases
same,muscle fatigue with physical exercise,muscle fatigue,lessened muscle fatigue
same,muscle stores of free creatine and phosphocreatine,muscle fatigue,greater muscle stores
